Several values for one entry are separate records, joined by “and”; a condition that tells them apart may be missing. Identical values can stand only once. Inconclusive results and toxic doses are left out. Cut-off read from the data, not from the text of the source: active = T/C of 150% or more; inactive = T/C below 125%.
Test system: L1210 leukemia ip in BDF1 mice, survival T/C
Assay: NCI In Vivo Anticancer Drug Screen. Data for tumor model L1210 Leukemia (intraperitoneal) in B6D2F1 (BDF1) mice
Conditions: endpoint: mean survival time, higher = longer survival
Summary of the method: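 Ratio derived from survival: compound-dosed mice over vehicle-dosed mice, all bearing a transplantable tumor.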

[1] = dose: 100.0 mg/kg/injection, schedule: Q01DX009 (ip), vehicle: Klucel (hydroxypropylcellulose) (HPC)
[2] = dose: 100.0 mg/kg/injection, schedule: Q04DX003 (ip), vehicle: Klucel (hydroxypropylcellulose) (HPC)
[3] = dose: 200.0 mg/kg/injection, schedule: Q01DX009 (ip), vehicle: Klucel (hydroxypropylcellulose) (HPC)
[4] = dose: 200.0 mg/kg/injection, schedule: Q04DX003 (ip), vehicle: Klucel (hydroxypropylcellulose) (HPC)
[5] = dose: 400.0 mg/kg/injection, schedule: Q01DX009 (ip), vehicle: Klucel (hydroxypropylcellulose) (HPC)
[6] = dose: 400.0 mg/kg/injection, schedule: Q04DX003 (ip), vehicle: Klucel (hydroxypropylcellulose) (HPC)
[7] = dose: 400.0 mg/kg/injection, schedule: Q01DX001 (ip), vehicle: carboxymethylcellulose (CMC)
[8] = dose: 50.0 mg/kg/injection, schedule: Q01DX001 (ip), vehicle: carboxymethylcellulose (CMC)

Measured: T/C

CCCCOC(=O)Nc1ccc(N)c(NC(=O)OCCCC)n1
inactive: dose: 100.0 mg/kg/injection, schedule: Q01DX009 (ip), vehicle: gum acacia 88 % of control | dose: 100.0 mg/kg/injection, schedule: Q04DX003 (ip), vehicle: gum acacia 99 % of control | dose: 200.0 mg/kg/injection, schedule: Q01DX009 (ip), vehicle: gum acacia 93 % of control | dose: 200.0 mg/kg/injection, schedule: Q04DX003 (ip), vehicle: gum acacia 99 % of control | dose: 400.0 mg/kg/injection, schedule: Q01DX009 (ip), vehicle: gum acacia 91 % of control | dose: 400.0 mg/kg/injection, schedule: Q04DX003 (ip), vehicle: gum acacia 97 % of control

Cc1ccc(NC(=S)NC(=O)c2ccco2)cc1Cl
inactive: [1] 101 % of control | [2] 102 % of control | [3] 106 % of control | [4] 98 % of control | [5] 102 % of control | [6] 98 % of control

C=C(C)C12OC3(c4ccccc4)OC1C1C4OC4(CO)C(O)C4(O)C(=O)C(C)=CC4C1(O3)C(C)C2OC(=O)/C=C/C=C/c1ccccc1 (stereo not drawn)
inactive: dose: 25.0 micrograms/kg/injection, schedule: Q01DX009 (ip), vehicle: alcohol 97 % of control | dose: 50.0 micrograms/kg/injection, schedule: Q01DX009 (ip), vehicle: alcohol 105 % of control | dose: 100.0 micrograms/kg/injection, schedule: Q01DX009 (ip), vehicle: alcohol 92 % of control | dose: 200.0 micrograms/kg/injection, schedule: Q01DX009 (ip), vehicle: alcohol 92 % of control | dose: 400.0 micrograms/kg/injection, schedule: Q01DX009 (ip), vehicle: alcohol 103 % of control

CCNC(=O)c1cc(NC(=O)c2ccc(C(=O)Nc3cc(C(=O)NCC)cc(C4=NCCN4)c3)cc2)cc(C2=NCCN2)c1
inactive: dose: 14.25 mg/kg/injection, schedule: Q01DX015 (ip), vehicle: water 101 % of control | dose: 28.5 mg/kg/injection, schedule: Q01DX015 (ip), vehicle: water 98 % of control | dose: 57.0 mg/kg/injection, schedule: Q01DX015 (ip), vehicle: water 116 % of control

CCN(CC)CCN(C)C
inactive: dose: 100.0 mg/kg/injection, schedule: Q01DX009 (ip), vehicle: saline 102 % of control | dose: 100.0 mg/kg/injection, schedule: Q04DX003 (ip), vehicle: saline 105 % of control | dose: 200.0 mg/kg/injection, schedule: Q01DX009 (ip), vehicle: saline 107 % of control | dose: 200.0 mg/kg/injection, schedule: Q04DX003 (ip), vehicle: saline 97 % of control | dose: 400.0 mg/kg/injection, schedule: Q04DX003 (ip), vehicle: saline 97 % of control

C1CCC2[N-]CC3CCCCC3[N-]CC3CCCCC3[N-]CC3CCCCC3[N-]CC2C1.[Cl][Fe]([Cl])([Cl])[Cl].[Fe+6] (stereo not drawn)
inactive: dose: 12.5 mg/kg/injection, schedule: Q04DX002 (ip), vehicle: Klucel (hydroxypropylcellulose) (HPC) 102 % of control | dose: 25.0 mg/kg/injection, schedule: Q04DX002 (ip), vehicle: Klucel (hydroxypropylcellulose) (HPC) 102 % of control | dose: 50.0 mg/kg/injection, schedule: Q04DX002 (ip), vehicle: Klucel (hydroxypropylcellulose) (HPC) 94 % of control

IC12CC3CC(CC(C3)C1)C2
inactive: dose: 100.0 mg/kg/injection, schedule: Q01DX009 (ip), vehicle: saline with Tween-80 93 % of control | dose: 200.0 mg/kg/injection, schedule: Q01DX009 (ip), vehicle: saline with Tween-80 87 % of control | dose: 400.0 mg/kg/injection, schedule: Q01DX009 (ip), vehicle: saline with Tween-80 97 % of control

N#CCCN(CCC#N)c1ccc(C=O)cc1
inactive: [1] 97 % of control | [2] 111 % of control | [3] 103 % of control | [4] 93 % of control | [5] 96 % of control | [6] 98 % of control

C[P+]1(c2ccccc2)CCC(N)=C(C#N)C1 (stereo not drawn)
inactive: dose: 100.0 mg/kg/injection, schedule: Q04DX002 (ip), vehicle: saline with Tween-80 100 % of control

COc1ccc(/C=C(/c2ccccc2)[N+](=O)[O-])cc1
inactive: dose: 176.0 mg/kg/injection, schedule: Q01DX001 (ip), vehicle: carboxymethylcellulose (CMC) 102 % of control | dose: 264.0 mg/kg/injection, schedule: Q01DX001 (ip), vehicle: carboxymethylcellulose (CMC) 89 % of control | [7] 89 % of control | dose: 600.0 mg/kg/injection, schedule: Q01DX001 (ip), vehicle: carboxymethylcellulose (CMC) 89 % of control

C/C(=N/N(C)C)c1cccc(N)c1
inactive: dose: 100.0 mg/kg/injection, schedule: Q01DX001 (ip), vehicle: saline 98 % of control | dose: 200.0 mg/kg/injection, schedule: Q01DX001 (ip), vehicle: saline 93 % of control | dose: 400.0 mg/kg/injection, schedule: Q01DX001 (ip), vehicle: saline 101 % of control

CC(=O)Nc1nc(C)c(CCCN(Cc2ccccc2)C(C)=O)c(=O)[nH]1
inactive: dose: 75.0 mg/kg/injection, schedule: Q01DX001 (ip), vehicle: Klucel (hydroxypropylcellulose) (HPC) 96 % of control | dose: 150.0 mg/kg/injection, schedule: Q01DX001 (ip), vehicle: Klucel (hydroxypropylcellulose) (HPC) 99 % of control | dose: 300.0 mg/kg/injection, schedule: Q01DX001 (ip), vehicle: Klucel (hydroxypropylcellulose) (HPC) 92 % of control

COc1cc(/C=N/N(c2ccccc2)C2CCS(=O)(=O)C2)ccc1O (stereo not drawn)
inactive: dose: 100.0 mg/kg/injection, schedule: Q04DX002 (ip), vehicle: saline 93 % of control | dose: 200.0 mg/kg/injection, schedule: Q04DX002 (ip), vehicle: saline 101 % of control | dose: 400.0 mg/kg/injection, schedule: Q04DX002 (ip), vehicle: saline 93 % of control

CC(C)CC(=O)Nc1ccccc1
inactive: [2] 105 % of control | dose: 100.0 mg/kg/injection, schedule: Q04DX003 (ip), vehicle: other 98 % of control | [4] 101 % of control | dose: 200.0 mg/kg/injection, schedule: Q04DX003 (ip), vehicle: other 98 % of control | [6] 89 % of control | dose: 400.0 mg/kg/injection, schedule: Q04DX003 (ip), vehicle: other 89 % of control

CC(=O)Nc1ccc(S(=O)(=O)F)cc1C
inactive: [1] 98 % of control | [3] 95 % of control

CCC(=O)C1(c2ccccc2)CCNCC1
inactive: dose: 25.0 mg/kg/injection, schedule: Q01DX009 (ip), vehicle: Klucel (hydroxypropylcellulose) (HPC) 102 % of control | dose: 50.0 mg/kg/injection, schedule: Q01DX009 (ip), vehicle: Klucel (hydroxypropylcellulose) (HPC) 106 % of control | [1] 98 % of control and 118 % of control | dose: 200.0 mg/kg/injection, schedule: Q04DX002 (ip), vehicle: Klucel (hydroxypropylcellulose) (HPC) 106 % of control

COc1cc(C=Nc2cccc(C(=O)O)c2)ccc1N(CCCl)CCCl
inactive: [8] 117 % of control

COc1c(OC2OC(CO)C(O)C(O)C2O)cc2c(c1OC)-c1ccc(SC)c(=O)cc1C(NC(C)=O)CC2 (stereo not drawn)
inactive: dose: 6.0 mg/kg/injection, schedule: Q01DX009 (ip), vehicle: saline 97 % of control | dose: 12.0 mg/kg/injection, schedule: Q01DX001 (ip), vehicle: saline 98 % of control | dose: 12.0 mg/kg/injection, schedule: Q01DX009 (ip), vehicle: saline 98 % of control | dose: 25.0 mg/kg/injection, schedule: Q01DX001 (ip), vehicle: saline 100 % of control | dose: 25.0 mg/kg/injection, schedule: Q01DX009 (ip), vehicle: saline 101 % of control

CCOC(=O)c1ccc(N(CCC(O)CN=[N+]=[N-])S(=O)(=O)c2ccc(C)cc2)cc1 (stereo not drawn)
inactive: [8] 96 % of control | dose: 100.0 mg/kg/injection, schedule: Q01DX001 (ip), vehicle: carboxymethylcellulose (CMC) 100 % of control | dose: 200.0 mg/kg/injection, schedule: Q01DX001 (ip), vehicle: carboxymethylcellulose (CMC) 96 % of control | [7] 100 % of control

Source: PubChem BioAssay AID248 (DTP/NCI, 2004)
